Test results: patent US10711004B2 (Genentech, Inc., priority 2018, dated 2020)
pIC50: −log10 of the molar value. Where two headings read alike, the source gives them in different places.

Target: human TRPA1 channel (Homo sapiens (Human), UniProt O75762)
Assay: hTRPA1 CHO Ca2+ FLIPR Tetra assay, block of cinnamaldehyde induced calcium influx
Type: cell-based
Conditions: CHO cells expressing TRPA1, Hill coefficient fixed to 1.5
Outline: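 IC50 values come from fixed-Hill fits of inhibition of cinnamaldehyde-induced (about EC50 level) calcium influx measured by FLIPR Tetra. Before agonist, TRPA1-expressing CHO cells loaded with calcium indicator were exposed to compound for 10 or 90 min at room temperature in HEPES-buffered HBSS, pH 7.4, with 0.02% BSA.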

[1] = read-out: hTRPA1 IC50 (10 min), compounds incubated 10 minutes at room temperature before cinnamaldehyde agonist
[2] = read-out: hTRPA1 IC50 (90 min), compounds incubated 90 minutes at room temperature before cinnamaldehyde agonist
[3] = compounds incubated 90 minutes at room temperature before cinnamaldehyde agonist

Sequence of human TRPA1 channel (O75762 whole entry): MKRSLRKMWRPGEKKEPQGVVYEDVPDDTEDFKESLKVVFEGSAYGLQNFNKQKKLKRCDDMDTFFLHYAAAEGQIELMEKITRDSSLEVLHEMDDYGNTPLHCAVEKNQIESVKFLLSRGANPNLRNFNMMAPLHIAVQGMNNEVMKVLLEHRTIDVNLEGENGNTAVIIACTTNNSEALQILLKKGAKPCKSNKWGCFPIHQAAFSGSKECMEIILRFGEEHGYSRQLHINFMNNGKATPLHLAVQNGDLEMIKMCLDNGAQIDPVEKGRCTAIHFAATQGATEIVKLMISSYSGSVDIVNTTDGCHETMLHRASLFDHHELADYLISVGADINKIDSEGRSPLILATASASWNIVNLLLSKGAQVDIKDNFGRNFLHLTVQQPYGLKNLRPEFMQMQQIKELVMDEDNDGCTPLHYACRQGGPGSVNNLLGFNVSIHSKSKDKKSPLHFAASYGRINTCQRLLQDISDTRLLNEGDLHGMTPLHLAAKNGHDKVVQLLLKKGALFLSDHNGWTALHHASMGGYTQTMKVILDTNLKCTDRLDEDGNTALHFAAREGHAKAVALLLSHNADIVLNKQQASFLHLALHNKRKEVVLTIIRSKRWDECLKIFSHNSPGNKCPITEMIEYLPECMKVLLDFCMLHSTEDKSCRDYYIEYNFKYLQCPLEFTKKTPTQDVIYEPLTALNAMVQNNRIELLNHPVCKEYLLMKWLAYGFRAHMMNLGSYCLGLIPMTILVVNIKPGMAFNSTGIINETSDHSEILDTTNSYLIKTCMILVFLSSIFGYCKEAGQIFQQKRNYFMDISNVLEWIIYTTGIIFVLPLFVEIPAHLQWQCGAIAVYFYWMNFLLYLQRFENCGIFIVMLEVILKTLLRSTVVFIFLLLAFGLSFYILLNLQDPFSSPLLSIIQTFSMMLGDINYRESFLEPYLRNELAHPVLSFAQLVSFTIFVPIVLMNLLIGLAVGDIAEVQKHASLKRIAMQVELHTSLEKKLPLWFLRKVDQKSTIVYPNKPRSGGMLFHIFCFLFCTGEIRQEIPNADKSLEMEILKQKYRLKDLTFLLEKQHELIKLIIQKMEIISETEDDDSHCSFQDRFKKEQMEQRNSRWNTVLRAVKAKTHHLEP

Row | SMILES | pIC50 [1] | pIC50 [2] | pIC50 (compounds incubated 10 minutes at room temperature before cinnamaldehyde agonist) | pIC50 [3]
1 | O=c1c2cccnc2ncn1Cc1nc([C@H]2C[C@](F)(c3cccc(Cl)c3)C2)no1 [Example Compound 198, 3-((3-((1s,3s)-3-(3-chlorophenyl)-3-fluorocyclobutyl)-1,2,4-oxadiazol-5-yl)methyl)pyrido[2,3-d]pyrimidin-4(3H)-one] | 7.23 |  |  | 
2 | Cn1cnc2ncn(Cc3nc([C@H]4[C@@H]5CN(c6cccc(-c7cnco7)c6)C[C@@H]54)no3)c(=O)c21 [Example Compound 199, 7-methyl-1-((3-((1R,5S,6r)-3-(3-(oxazol-5-yl)phenyl)-3-azabicyclo[3.1.0]hexan-6-yl)-1,2,4-oxadiazol-5-yl)methyl)-1,7-dihydro-6H-purin-6-one] | 7.58 | 7.66 |  | 
3 | Cn1cc(-c2cccc(N3C[C@@H]4[C@H](C3)[C@H]4c3noc(Cn4cnc5ncn(C)c5c4=O)n3)c2)cn1 [Example Compound 200, 7-methyl-1-((3-((1R,5S,6r)-3-(3-(1-methyl-1H-pyrazol-4-yl)phenyl)-3-azabicyclo[3.1.0]hexan-6-yl)-1,2,4-oxadiazol-5-yl)methyl)-1,7-dihydro-6H-purin-6-one] | 7.42 | 7.77 |  | 
4 | Cn1cnc2ncn(Cc3nc([C@H]4[C@@H]5CN(c6cccc(-c7ccncc7)c6)C[C@@H]54)no3)c(=O)c21 [Example Compound 201, 7-methyl-1-((3-((1R,5S,6r)-3-(3-(pyridin-4-yl)phenyl)-3-azabicyclo[3.1.0]hexan-6-yl)-1,2,4-oxadiazol-5-yl)methyl)-1,7-dihydro-6H-purin-6-one] | 7.17 | 7.18 |  | 
5 | Cn1cnc2ncn(Cc3nc([C@H]4[C@@H]5CN(c6cccc(-n7cccn7)c6)C[C@@H]54)no3)c(=O)c21 [Example Compound 202, 1-((3-((1R,5S,6r)-3-(3-(1H-pyrazol-1-yl)phenyl)-3-azabicyclo[3.1.0]hexan-6-yl)-1,2,4-oxadiazol-5-yl)methyl)-7-methyl-1,7-dihydro-6H-purin-6-one] | 7.30 |  |  | 
6 | Cn1cnc2ncn(Cc3nc([C@H]4[C@@H]5CN(c6cccc(-c7cccnc7)c6)C[C@@H]54)no3)c(=O)c21 [Example Compound 203, 7-methyl-1-((3-((1R,5S,6r)-3-(3-(pyridin-3-yl)phenyl)-3-azabicyclo[3.1.0]hexan-6-yl)-1,2,4-oxadiazol-5-yl)methyl)-1,7-dihydro-6H-purin-6-one] | 7.33 | 7.11 |  | 
7 | Cn1cnc2ncn(Cc3nc([C@H]4[C@@H]5CN(c6ccc(Cl)cn6)C[C@@H]54)no3)c(=O)c21 [Example Compound 205, 1-((3-((1R,5S,6r)-3-(5-chloropyridin-2-yl)-3-azabicyclo[3.1.0]hexan-6-yl)-1,2,4-oxadiazol-5-yl)methyl)-7-methyl-1,7-dihydro-6H-purin-6-one] | 6.30 | 7.07 |  | 
8 | Cn1cnc2ncn(Cc3nc([C@H]4C[C@](F)(c5ccc(F)cc5)C4)no3)c(=O)c21 [Example Compound 206, 1-((3-((1s,3s)-3-fluoro-3-(4-fluorophenyl)cyclobutyl)-1,2,4-oxadiazol-5-yl)methyl)-7-methyl-1,7-dihydro-6H-purin-6-one] | 6.50 |  |  | 
9 | O=c1c2cccnc2ncn1Cc1nc([C@H]2C[C@](F)(c3ccc(F)cc3)C2)no1 [Example Compound 207, 3-((3-((1s,3s)-3-fluoro-3-(4-fluorophenyl)cyclobutyl)-1,2,4-oxadiazol-5-yl)methyl)pyrido[2,3-d]pyrimidin-4(3H)-one] | 7.02 |  |  | 
10 | O=c1c2cccnc2ncn1Cc1nc([C@H]2C[C@H](c3ccc(Cl)cc3)C2)no1 [Example Compound 208, 3-((3-((1r,3r)-3-(4-chlorophenyl)cyclobutyl)-1,2,4-oxadiazol-5-yl)methyl)pyrido[2,3-d]pyrimidin-4(3H)-one] | 7.11 |  |  | 
11 | Cn1cnc2ncn(Cc3nc([C@H]4C[C@H](c5cc(Cl)ccc5F)C4)no3)c(=O)c21 [Example Compound 209, 1-((3-((1r,3r)-3-(5-chloro-2-fluorophenyl)cyclobutyl)-1,2,4-oxadiazol-5-yl)methyl)-7-methyl-1,7-dihydro-6H-purin-6-one] | 6.05 |  |  | 
12 | Cc1ccnc2ncn(Cc3nc([C@H]4C[C@](F)(c5cccc(Cl)c5)C4)no3)c(=O)c12 [Example Compound 210, 3-((3-((1s,3s)-3-(3-chlorophenyl)-3-fluorocyclobutyl)-1,2,4-oxadiazol-5-yl)methyl)-5-methylpyrido[2,3-d]pyrimidin-4(3H)-one] | 7.82 |  |  | 
13 | Cn1cnc2ncn(Cc3nc([C@H]4[C@@H]5CN(c6ccc7ncsc7c6)C[C@@H]54)no3)c(=O)c21 [Example Compound 211, 1-((3-((1R,5S,6r)-3-(benzo[d]thiazol-6-yl)-3-azabicyclo[3.1.0]hexan-6-yl)-1,2,4-oxadiazol-5-yl)methyl)-7-methyl-1,7-dihydro-6H-purin-6-one] | 7.20 | 8.00 |  | 
14 | Cn1cnc2ncn(Cc3nc([C@H]4[C@@H]5CN(c6cc(Cl)ccn6)C[C@@H]54)no3)c(=O)c21 [Example Compound 212, 1-((3-((1R,5S,6r)-3-(4-chloropyridin-2-yl)-3-azabicyclo[3.1.0]hexan-6-yl)-1,2,4-oxadiazol-5-yl)methyl)-7-methyl-1,7-dihydro-6H-purin-6-one] | 7.07 | 7.60 |  | 
15 | O=c1c2cccnc2cnn1Cc1nc([C@H]2[C@@H]3CN(c4ccccc4)C[C@@H]32)no1 [Example Compound 213, 6-((3-((1R,5S,6r)-3-phenyl-3-azabicyclo[3.1.0]hexan-6-yl)-1,2,4-oxadiazol-5-yl)methyl)pyrido[2,3-d]pyridazin-5(6H)-one] | 8.21 | 8.29 | 7.81 | 8.07
16 | O=c1c2cccnc2cnn1Cc1nc([C@H]2[C@@H]3CN(c4cccc(Cl)c4)C[C@@H]32)no1 [Example Compound 214, 6-((3-((1R,5S,6r)-3-(3-chlorophenyl)-3-azabicyclo[3.1.0]hexan-6-yl)-1,2,4-oxadiazol-5-yl)methyl)pyrido[2,3-d]pyridazin-5(6H)-one] | 8.54 |  |  | 
17 | Cn1c(=O)c2c(ncn2Cc2nc([C@H]3[C@@H]4CN(c5cccc(Cl)c5)C[C@@H]43)no2)n(C)c1=O [Example Compound 215, 7-((3-((1R,5S,6r)-3-(3-chlorophenyl)-3-azabicyclo[3.1.0]hexan-6-yl)-1,2,4-oxadiazol-5-yl)methyl)-1,3-dimethyl-3,7-dihydro-1H-purine-2,6-dione] | 7.25 |  |  | 
18 | O=c1c2cccnc2ncn1Cc1nc([C@H]2[C@@H]3CN(c4cccc(Cl)c4)C[C@@H]32)no1 [Example Compound 216, 3-((3-((1R,5S,6r)-3-(3-chlorophenyl)-3-azabicyclo[3.1.0]hexan-6-yl)-1,2,4-oxadiazol-5-yl)methyl)pyrido[2,3-d]pyrimidin-4(3H)-one] | 7.86 |  |  | 7.89
19 | Cn1cnc2ncn(Cc3nc([C@H]4C[C@H](Oc5cccc(Cl)c5)C4)no3)c(=O)c21 [Example Compound 217, 1-((3-((1r,3r)-3-(3-chlorophenoxy)cyclobutyl)-1,2,4-oxadiazol-5-yl)methyl)-7-methyl-1,7-dihydro-6H-purin-6-one] | 7.42 |  |  | 
20 | Cn1cnc2ncn(Cc3nc([C@H]4C[C@H](Oc5ccc(Cl)cc5)C4)no3)c(=O)c21 [Example Compound 218, 1-((3-((1r,3r)-3-(4-chlorophenoxy)cyclobutyl)-1,2,4-oxadiazol-5-yl)methyl)-7-methyl-1,7-dihydro-6H-purin-6-one] | 7.60 | 7.89 |  | 
21 | Cn1cnc2ncn(Cc3nc([C@H]4[C@@H]5CN(c6cc(Cl)c(F)cc6F)C[C@@H]54)no3)c(=O)c21 [Example Compound 219, 1-((3-((1R,5S,6r)-3-(5-chloro-2,4-difluorophenyl)-3-azabicyclo[3.1.0]hexan-6-yl)-1,2,4-oxadiazol-5-yl)methyl)-7-methyl-1,7-dihydro-6H-purin-6-one] | 7.53 | 7.51 |  | 
22 | Cn1cnc2ncn(Cc3nc([C@H]4C[C@H](c5ccc(F)c(Cl)c5)C4)no3)c(=O)c21 [Example Compound 220, 1-((3-((1r,3r)-3-(3-chloro-4-fluorophenyl)cyclobutyl)-1,2,4-oxadiazol-5-yl)methyl)-7-methyl-1,7-dihydro-6H-purin-6-one] | 7.26 |  |  | 
23 | Cn1cnc2ncn(Cc3nc([C@H]4[C@@H]5CN(c6ccc7scnc7c6)C[C@@H]54)no3)c(=O)c21 [Example Compound 221, 1-((3-((1R,5S,6r)-3-(benzo[d]thiazol-5-yl)-3-azabicyclo[3.1.0]hexan-6-yl)-1,2,4-oxadiazol-5-yl)methyl)-7-methyl-1,7-dihydro-6H-purin-6-one] | 7.03 | 7.39 |  | 
24 | Cn1cnc2ncn(Cc3nc([C@H]4[C@@H]5CN(c6c(F)ccc(Cl)c6F)C[C@@H]54)no3)c(=O)c21 [Example Compound 222, 1-((3-((1R,5S,6r)-3-(3-chloro-2,6-difluorophenyl)-3-azabicyclo[3.1.0]hexan-6-yl)-1,2,4-oxadiazol-5-yl)methyl)-7-methyl-1,7-dihydro-6H-purin-6-one] | 7.53 | 8.17 |  | 
25 | Cn1cnc2ncn(Cc3nc([C@H]4CC[C@H](c5ccc(Cl)cc5)C4)no3)c(=O)c21 [Example Compound 223, 1-((3-((1S,3S)-3-(4-chlorophenyl)cyclopentyl)-1,2,4-oxadiazol-5-yl)methyl)-7-methyl-1,7-dihydro-6H-purin-6-one] | 7.65 |  |  | 
26 | Cc1cccc(N2C[C@@H]3[C@H](C2)[C@H]3c2noc(Cn3cnc4ncn(C)c4c3=O)n2)c1 [Example Compound 224, 7-methyl-1-((3-((1R,5S,6r)-3-(m-tolyl)-3-azabicyclo[3.1.0]hexan-6-yl)-1,2,4-oxadiazol-5-yl)methyl)-1,7-dihydro-6H-purin-6-one] | 7.15 | 7.72 |  | 
